Source: US20080188508A1, “Methods and Therapies for Potentiating a Therapeutic Action of an Opioid Receptor Agonist and Inhibiting and/or Reversing Tolerance to Opioid Receptor Agonists” (priority 2007, published 2008)

How the values were obtained:
[1] = dose of AM-251 used in these experiments; Trang et al. Pain 2006; cited from earlier work
Sprague Dawley rats = system: Sprague Dawley rats
Description: Experiments were performed in accordance with guidelines of the Canadian Council on Animal Care using protocols approved by the University Animal Care Committee. Adult male Sprague Dawley rats (200-250 grams) (Charles River, Quebec) were housed in separate cages and maintained on a 12 hour light/12 hour dark cycle with access to food and water ad libitum.
Animals were anaesthetized with halothane (4%) and implanted with an indwelling intrathecal catheter. A small puncture was made in the atlanto-occipital membrane and a polythene catheter (PE-10; 7.5 cm long) inserted caudally so that the tip rested on the lumbar enlargement of the spinal cord. The rostral end was exteriorized to facilitate drug administration. Surgical wounds were closed with sutures and animals allowed to recover for one week. Animals showing signs of forelimb or hindlimb paralysis were excluded from experiments. Drugs were injected in a 10 μl volume (i.t.) followed by 10 μl of 0.9% saline to flush the catheter.
Response to an acute thermal nociceptive stimulus was assessed in rats using the tail-flick test. Radiant heat was applied to the dorsal surface of the tail using an analgesic meter and the time latency for removal of the tail from the stimulus was recorded. […] A cutoff of 10 seconds was used in both studies to prevent tissue injury.
Response to an acute mechanical nociceptive stimulus was assessed using the paw-pressure test. Using an air-filled inverted syringe, pressure was gradually applied to the dorsal surface of the hindpaw until a paw withdrawal response was observed and the value (mmHg) recorded. A cut-off of 300 mmHg was used to prevent tissue injury.
Tail-flick and paw-pressure nociceptive tests were performed both before and 30 minutes after drug injection. […] Nociceptive testing was performed both before and 30 minutes after each injection.
The day following ED50 testing, spinal cords from animals were processed for CGRP immunohistochemical staining as described infra.
Tail-flick and paw-pressure values were converted to a maximum percentage effect (M.P.E.): M.P.E.=100×[post-drug response−baseline response]/[maximum response−baseline response]. Data in the figures are expressed as mean±s.e.mean. ED50 values were determined using a non-linear regression analysis (Prism 2, GraphPad Software Inc., San Diego, Calif., USA). Statistical significance (p<0.05) was determined using a one-way analysis of variance (ANOVA) followed by a Student Newman-Keuls post hoc test for multiple comparisons between groups.

[2] = system: CGRP-immunoreactive neurons in adult rat dorsal root ganglion cultures
Description: In this method, rats were decapitated and DRGs removed aseptically from the cervical, thoracic, lumbar, and sacral regions of the spinal cord. […] DRGs were minced, digested with 0.25% collagenase (Calbiochem) in Ham's F12 Medium (GIBCO/BRL) for 90 minutes at 37° C., and then trypsinized (0.25%) (GIBCO/BRL) for 1.5 hours at 37° C. Next, the tissues were triturated with a 19 gauge syringe in Dulbecco's Modified Eagle Medium (DMEM, GIBCO/BRL) containing 1% HEPES buffer, penicillin/streptomycin (1:100), and 10% Fetal Bovine Serum (GIBCO/BRL). Samples were then centrifuged at 500 g for 10 minutes. The resulting pellet was resuspended with DMEM and filtered through a cell strainer (70 μm, Falcon). DRG cells were seeded in a poly-D-lysine coated 96-well culture plate (Falcon) at a density of 5×10^4 cells/well and incubated at 37° C. with 5% CO2 and 95% O2 for the duration of the experiment. […]
To examine the effects of drug treatment on CGRP-immunoreactivity in the cultured DRG cells, the number of CGRP immunopositive cells was counted using an inverted phase microscope (Olympus CX2). […] The field of view in which CGRP-IR cells were counted measured 1 mm^2. […]
For the cultured DRG studies, the mean±s.e.mean of CGRP-immunopositive cells was obtained from 4 wells per treatment group in each of 3 separate cell cultures. Data are expressed as a percent of saline control wells. […]

[3] = i.t. morphine 15 μg, first injection, both tail-flick and paw-pressure test

Structure (SMILES): Cc1c(C(=O)NN2CCCCC2)nn(-c2ccc(Cl)cc2Cl)c1-c1ccc(I)cc1 [AM-251, 1-(2,4-dichlorophenyl)-5-(4-iodophenyl)-4-methyl-N-1-piperidinyl-1H-pyrazole-3-carboxamide]
- effect on anandamide-induced antinociception [1]: selectively block
- influence on acute morphine-induced analgesia [1]: no influence
- effect on basal nociceptive responses (Sprague Dawley rats; AM-251 3.2 μg administered alone over 5 days): did not have an effect
- morphine ED50 value versus chronic saline treatment (Sprague Dawley rats; AM-251 3.2 μg alone for 5 days): did not significantly alter
- effect on basal nociceptive response (Sprague Dawley rats; AM-251 3.2 μg in the absence of morphine on days 6-10): no effect
- effect on the increase in morphine ED50 values (Sprague Dawley rats; AM-251 (1.6 μg or 3.2 μg) co-administered with i.t. morphine for 5 days): completely blocked the increase in ED50 values
- effect on the increase in morphine ED50 value (Sprague Dawley rats; acute paradigm, co-treatment of AM-251 with morphine): suppressed the increase in ED50 value
- morphine ED50 value versus saline-only control (Sprague Dawley rats; acute paradigm, drug without the other drug: single morphine injection then saline, or AM-251 3.2 μg alone): did not change
- effect on baseline antinociceptive responses (Sprague Dawley rats; i.t. injections of AM-251 alone, acute paradigm, either test): no effect
- morphine ED50 value versus saline-only animals (Sprague Dawley rats; morphine days 1-5 discontinued, then saline (row morphine) or AM-251 alone (row AM-251) on days 6-10): comparable to saline-only

Structure (SMILES): C=CCN1CC[C@]23c4c5ccc(O)c4O[C@H]2C(=O)CC[C@@]3(O)[C@H]1C5 [naloxone]
- effect on the morphine-induced increase in CGRP-immunopositive neurons ([2]; pre-treatment with naloxone 10 μM, morphine 20 μM): blocked

Structure (SMILES): CN1CC[C@]23c4c5ccc(O)c4O[C@H]2[C@@H](O)C=C[C@H]3[C@H]1C5.O=S(=O)(O)O [morphine, Morphine sulphate]
- increase in number of CGRP-immunopositive neurons compared to vehicle-treated controls ([2]; chronic morphine (20 μM) treatment for 5-days): approximately 57%
- antinociceptive effect on daily injection for 10 days (Sprague Dawley rats; daily i.t. morphine (3.2 μg as printed) for 10 days, by day 5): progressive decline in morphine antinociception to baseline levels
- time by which antinociceptive response returned to baseline (Sprague Dawley rats; [3]): ≤ 90 min
- time of maximal antinociceptive response post-injection (Sprague Dawley rats; [3]): 30 min
